{"source": "paper PMC12521730", "about": "“Quantitative dual-isotope preclinical SPECT/CT imaging and biodistribution of the mercury-197m/g theranostic pair with [^197m/gHg]HgCl2 and a [^197m/gHg]Hg-tetrathiol complex as a platform for radiopharmaceutical development” (EJNMMI Radiopharmacy and Chemistry, 2025)", "key": {"[1]": {"assay": "Stable metal competition assay, biologically relevant metal cocktail", "format": "physicochemical", "conditions": "tenfold excess to chelator, 113 h, ambient temperature", "experimental": "(§1) To the [^197m/gHg][Hg(Tetrathiol)]^2− (prepared as described above) or radiolabeling controls (DMSO instead of the ligand) 10 µL of a 10 mM metal cocktail (solution of biologically relevant metals, ZnCl2, FeCl3, CuCl2, MgCl2 and CoCl2), 10 mM AuCl3 or 10 mM of HgCl2, in water was added. The final solution contained tenfold excess of stable metal to the chelators and 10^6-fold excess of the stable metal to ^197m/gHg in solution. The mixtures were incubated at RT over 113 h. The proportion of intact radiolabeled complex was monitored over the course of 113 h using iTLC-SG and DMSA solution (50 mM, pH 5) as the mobile phase. Under these conditions, uncomplexed ^197m/gHg^2+ resulting from stable metal transchelation traveled to the solvent front (Rf = 1) while intact [^197m/gHg][Hg(Tetrathiol)]^2− remained at the baseline (Rf = 0)."}, "[2]": {"assay": "L-Glutathione (GSH) competition assay", "format": "physicochemical", "conditions": "37 °C, 72 h, 2.12 mM GSH", "experimental": "GSH competition assay procedures closely followed those previously developed by our group (Randhawa et al. [2023]). To the [^197m/gHg][Hg(Tetrathiol)]^2− (prepared as described above) or radiolabeling controls (DMSO instead of the ligand) was added to a 50 mM L-glutathione (GSH) solution (1:22 v/v GSH:reaction solution dilution), and the mixtures were incubated at 37 °C over 72 h. The final GSH concentration was chosen to mimic in vivo conditions within cells (2.12 mM) (Dickinson and Forman [2002]). The proportion of intact radiolabeled complex was monitored over the course of 72 h using iTLC-SG and L-glutathione (50 mM) as the mobile phase. Under these conditions, uncomplexed ^197m/gHg^2+ resulting from GSH transchelation traveled to the solvent front (Rf = 1) while intact [^197m/gHg][Hg(Tetrathiol)]^2− remained at the baseline (Rf = 0)."}, "[3]": {"assay": "Human serum stability assay (SDS-PAGE)", "format": "in vitro ADME", "conditions": "37 °C, 72 h", "experimental": "To the [^197m/gHg][Hg(Tetrathiol)]^2− (prepared as described above) or radiolabeling controls (DMSO instead of the ligand) was diluted in human serum (1:1 v/v dilution), and the solutions were incubated at 37 °C over 72 h. The metal-complex stabilities were monitored over 72 h using SDS-PAGE following our previously reported protocols (Randhawa et al. [2023]; Tosato et al. [2024]). At each time point, an aliquot (10 μL) of the reaction mixture was mixed with Laemmli sample buffer (10 μL) and was directly loaded onto the SDS-PAGE gel. The SDS-PAGE was run at ambient temperature and 150 V until the dye front reached the resolving gel (1 h). Following electrophoresis, the gel was scanned with the radio-TLC scanner to determine the percentage of intact complex. The same protocol was used with free [^197m/gHg]Hg^2+ and the ^197m/gHg^2+-complexes diluted in phosphate-buffered saline (PBS) (5 µL; 1:1 v/v dilution) to assess their electrophoretic mobility."}, "[4]": {"assay": "Stable metal competition assay, AuCl3", "format": "physicochemical", "conditions": "tenfold excess to chelator, 113 h, ambient temperature", "experimental": "as §1"}, "[5]": {"assay": "LogD7.4 shake-flask measurement (n-octanol/PBS)", "format": "physicochemical", "conditions": "n-octanol/PBS pH 7.4, shake-flask", "experimental": "Aliquots of [^197m/gHg][Hg(Tetrathiol)]^2− (prepared as described above) (10 μL) were added to a biphasic mixture of n-octanol (700 μL) and phosphate buffered saline (PBS, 700 μL, pH 7.4). The mixture was vortexed for 2 min at ambient temperature and then separated via centrifugation (10 min, 3000 rpm). Aliquots of n-octanol (100 μL) and PBS (100 μL) were collected, and the activity in each portion was determined via gamma spectroscopy. LogD7.4 is defined as log10[(activity in n-octanol phase)/(activity in buffer phase)]."}, "[6]": {"assay": "Stable metal competition assay, HgCl2", "format": "physicochemical", "conditions": "tenfold excess HgCl2", "experimental": "as §1"}}}
{"compound": "O=C(CC[S-])OCC(COC(=O)CC[S-])(COC(=O)CC[S-])COC(=O)CC[S-].[Hg+2]", "note": "[[^197m/gHg]Hg-Tetrathiol]", "values": [{"measurement": "demetallation against mixture of biologically relevant metals", "setting": "[1]", "value": "no signs of demetallation"}, {"measurement": "stability when challenged against GSH", "setting": "[2]", "value": "no evidence of decomposition or transchelation"}, {"measurement": "intact complex in human serum", "setting": "[3]", "value": "86 ± 1", "unit": "%"}, {"measurement": "demetallation against AuCl3", "setting": "[4]", "value": "no signs of demetallation"}, {"measurement": "logD7.4", "setting": "[5]", "value": "0.35 ± 0.1"}, {"measurement": "intact complex in competition with HgCl2", "setting": "[6]; 113 h", "value": "18 ± 10", "unit": "%"}, {"measurement": "intact complex in competition with HgCl2", "setting": "[6]; within 2 h", "value": "71 ± 10", "unit": "%"}]}
